# Reference: US12678421B2, “Composition for enhancing NAMPT gene expression” (DAICEL CORPORATION, priority 2020, dated 2026)
# Key:
# NAMPT gene [1] = test: NAMPT gene expression in Caco-2 cells (real-time PCR); type: cell-based, human; conditions: 10 μM, 24 hours after addition, relative to β-actin, vs DMSO control (FIG. 1)
# Description: (§1) Human colon cancer-derived cell line Caco-2 cells (colon, epithelial-like, colorectal adenocarcinoma, human, ATCC HTB-37) were passaged using DMEM (containing 10% FBS, antibiotics (penicillin and streptomycin), and NaHCO3) medium in a CO2 incubator under conditions of 37° C., 5% CO2, and 95% air, and used for testing.
# (§2) Caco-2 cells were seeded in a 12-well plate at a cell concentration of 3×10^5 cells/dish, and equol dissolved in DMSO was added at a final concentration of 10 μM after 24 hours and 48 hours. In addition, the same amount of DMSO was added to a control, and resveratrol (Wako Pure Chemical Industries, Ltd.) was added to a positive control at a final concentration of 10 μM.
# (§3) Cells were harvested 24 hours after the addition of equol, and total RNA was extracted. cDNA was synthesized using the total RNA and was used as a template for real-time PCR. Real-time PCR was performed using a primer of each gene and the prepared cDNA to measure the expression level of each gene. In addition, the relative gene expression level was calculated using β-actin, which is a housekeeping gene, by dividing the measured value by the expression level of β-actin. The orientation of the primer sequences is 5′ to 3′ from left to right.
# SIRT1 gene [2] = test: SIRT1 gene expression in Caco-2 cells (real-time PCR); type: cell-based, human; conditions: 10 μM, 24 hours after addition, relative to β-actin, vs DMSO control (FIG. 2)
# Description: as §1, §2, §3
# PGC-1α gene [3] = test: PGC-1α gene expression in Caco-2 cells (real-time PCR); type: cell-based, human; conditions: 10 μM, 24 hours after addition, relative to β-actin, vs DMSO control (FIG. 3)
# Description: as §1, §2, §3
# Caco-2 cells [4] = test: Intracellular NAD^+/NADH quantification in Caco-2 cells; type: cell-based, human; conditions: 10 μM, 24 hours after addition, vs DMSO control (FIG. 4)
# Description: (§4) Caco-2 cells were passaged in the same manner as in Example 1 and used for testing. Caco-2 cells were seeded in a 5-mL dish at a cell concentration of 3×10^5 cells/dish, and equol was added in the same manner as in Example 1. In addition, a control and a positive control were prepared in the same manner as well.
# The medium was removed 24 hours after the addition of equol, the cells were washed with PBS, then intracellular NAD^+ and NADH were measured using an NAD^+/NADH quantification kit (BioVision, San Francisco, USA), and the NAD^+/NADH ratio was determined.
# PGC-1α = PGC-1α expression level and acetyl PGC-1α level in Caco-2 cells (Western blotting, immunoprecipitation); type: cell-based, human; conditions: 10 μM, 24 hours after addition, vs DMSO control (FIGS. 5-1, 5-2)
# Description: as §4
# The medium was removed 24 hours after the addition of equol, the cells were washed with PBS, and then cellular proteins were extracted. The extracted proteins were subjected to Western blotting using an anti-PGC-1α antibody (ab77210, abcam, Cambridge, UK) to measure the expression level of PGC-1α. Furthermore, after immunoprecipitation using an anti-acetylated-lysine antibody (#9441S, Cell Signaling Technology, Danvers, MA, USA), the acetyl PGC-1α level was measured by Western blotting.
# Caco-2 cells [5] = test: Intracellular mitochondria in Caco-2 cells (MitoTracker staining, imaging cytometer); type: cell-based, human; conditions: 10 μM, 24 hours after addition, vs DMSO control (FIG. 6)
# Description: as §4, with “μClear Fluorescence Black Plate (Greiner Bio-one)” for “5-mL dish”, “5×10^3” for “3×10^5”
# (§5) Mitochondria were stained using MotoTracker Red CMXRos (Invitrogen Corporation) 24 hours after the addition of equol. The cells were subjected to NI Cell Analyzer 1000 Imaging Cytometer (GE Healthcare Bio-Sciences Corp, Piscataway, NJ, USA) to detect intracellular mitochondria, and the image data were digitized using “mito Tracker” of NI Cell Analyzer 1000 Workstation (GE Healthcare Bio-Sciences Corp, Piscataway, NJ, USA).
# NAMPT gene [6] = test: NAMPT gene expression in C2C12 cells (real-time PCR); type: cell-based, mouse; conditions: C2C12 cells (myotubes), 10 μM, 24 hours after addition, relative to β-actin, vs DMSO control (FIG. 7)
# Description: (§6) Mouse skeletal muscle-derived myoblast cell line C2C12 cells (Muscle, Myoblast, Mus musculus, mouse, ATCC CRL-1772 (strain C3H)) were passaged using DMEM (containing 10% FBS, antibiotics (penicillin and streptomycin), and NaHCO3) medium in a CO2 incubator under conditions of 37° C., 5% CO2, and 95% air.
# (§7) After the C2C12 cells reached about 90% confluence, the serum in the medium was replaced with inactivated horse serum, and the serum concentration was lowered to 2% to induce differentiation. Cells on day 5 after differentiation induction were used as C2C12 myotubes for testing.
# as §2, with “C2C12” for “Caco-2”, “resveratrol” for “resveratrol (Wako Pure Chemical Industries, Ltd.)”
# (§8) Cells were harvested 24 hours after the addition of equol, and total RNA was extracted. cDNA was synthesized using the total RNA and was used as a template for real-time PCR. […] In addition, the relative gene expression level was calculated using β-actin, which is a housekeeping gene, by dividing the measured value by the expression level of β-actin.
# SIRT1 gene [7] = test: SIRT1 gene expression in C2C12 cells (real-time PCR); type: cell-based, mouse; conditions: C2C12 cells (myotubes), 10 μM, 24 hours after addition, relative to β-actin, vs DMSO control (FIG. 8)
# Description: as §6, §7
# as §2, with “C2C12” for “Caco-2”, “resveratrol” for “resveratrol (Wako Pure Chemical Industries, Ltd.)”
# as §8
# PGC-1α gene [8] = test: PGC-1α gene expression in C2C12 cells (real-time PCR); type: cell-based, mouse; conditions: C2C12 cells (myotubes), 10 μM, 24 hours after addition, relative to β-actin, vs DMSO control (FIG. 9)
# Description: as §6, §7
# as §2, with “C2C12” for “Caco-2”, “resveratrol” for “resveratrol (Wako Pure Chemical Industries, Ltd.)”
# as §8
# C2C12 cells = test: Intracellular mitochondria in C2C12 myotubes (MitoTracker staining, imaging cytometer); type: cell-based, mouse; conditions: 10 μM, 72 hours after addition, vs DMSO control (FIG. 10)
# Description: as §5
# as §7, with “C2C12 cells were passaged in the same manner as in Example 7 and used for testing. C2C12 cells were seeded in a μClear Fluorescence Black Plate (Greiner Bio-one) at a cell concentration of 1×10^4 cells/well. After” for “After”, “the” for “the C2C12”
# Equol was added in the same manner as in Example 1. In addition, the same amount of DMSO was also used for a control.
# The number of mitochondria was measured 72 hours after the addition of equol in the same manner as in Example 4.
smiles,measurement,setting,value
"Oc1ccc([C@H]2COc3cc(O)ccc3C2)cc1 [equol, 4′,7-isoflavandiol]",expression level of NAMPT gene,NAMPT gene [1],increased the expression levels
same,expression level of SIRT1 gene,SIRT1 gene [2],increased the expression levels
same,expression level of PGC-1α gene,PGC-1α gene [3],increased the expression levels
same,NAD^+ (NAD^+/NADH ratio),Caco-2 cells [4],increased NAD^+
same,deacetylation of PGC-1α (acetyl PGC-1α level),PGC-1α,promote deacetylation of PGC-1α
same,"expression level of PGC-1α (protein, Western blotting)",PGC-1α,increased the expression level of PGC-1α
same,number of intracellular mitochondria,Caco-2 cells [5],increased the number of intracellular mitochondria
same,expression level of NAMPT gene,NAMPT gene [6],increased the expression levels
same,expression level of SIRT1 gene,SIRT1 gene [7],increased the expression levels
same,expression level of PGC-1α gene,PGC-1α gene [8],increased the expression levels
same,number of intracellular mitochondria,C2C12 cells,increased the number of intracellular mitochondria
